Columns and labels:
[1] = molecular target: T1, M1 (h) (antagonist radioligand) (Homo sapiens, UniProt P11229); assay: radioligand displacement assay, M1; assay type: binding
T1 construct: purchased Eurofins (contract assay); host or cells: cell membrane homogenates
T1 sequence (P11229 1-460): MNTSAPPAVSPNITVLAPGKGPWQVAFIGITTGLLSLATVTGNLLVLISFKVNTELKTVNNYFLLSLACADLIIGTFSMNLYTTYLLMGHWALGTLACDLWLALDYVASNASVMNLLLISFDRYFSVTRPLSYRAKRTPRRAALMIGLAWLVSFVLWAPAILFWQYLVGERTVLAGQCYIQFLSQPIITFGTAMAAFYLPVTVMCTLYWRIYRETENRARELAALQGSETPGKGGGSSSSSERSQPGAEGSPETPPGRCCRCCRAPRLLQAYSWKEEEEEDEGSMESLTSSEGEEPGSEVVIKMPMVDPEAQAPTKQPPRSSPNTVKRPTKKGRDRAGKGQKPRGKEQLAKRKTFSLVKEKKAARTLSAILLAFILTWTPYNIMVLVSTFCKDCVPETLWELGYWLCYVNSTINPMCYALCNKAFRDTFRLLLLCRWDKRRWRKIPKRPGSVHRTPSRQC
Description: (§1) 4.2.3.6. Radioligand Binding Assay (Supplemental Figure S3)
(§2) These assays were run by Eurofins under contract to LifeArc FR095-0011887. A representative protocol describing the human histamine H2 receptor (antagonist radioligand) assay is shown below.12 Cell membrane homogenates (24 µg protein) are incubated for 120 min at 22°C with 0.075 nM [125I]APT in the absence or presence of the test compound in a buffer containing 50 mM Na2HPO4/KH2PO4 (pH […]
(§3) 7.4) and 0.05% BSA. […] Following

[2] = system: L. amazonensis promastigotes; assay: anti-promastigote assay, L. amazonensis (resazurin); assay type: cell-based; details: Leishmania amazonensis; promastigote parasites (Table 1); read-out: L.amaz EC50
Description: 4.2.3.1. Anti-promastigote assays […]
Protocol 1: L. amazonensis promastigotes in Medium 199 (100 μL at 5 × 105 mL−1) were incubated in 96-well plates with compounds in triplicate (amphotericin B was used as a positive control, and untreated parasites with DMSO as a negative control) at 26 °C for 72 h. Resazurin Solution (10 μL) was then added and the plate incubated at 26 °C for 4 h prior to measurement using a fluorescence plate reader (555 - 585 nm). EC50 values were calculated using sigmoidal regression analysis (GraphPad Prism).
Protocol 2: Same procedure as above with the modification of a 48 h incubation time as opposed to 72 h and Leishmania amazonensis (MHOM/Br/75/JOSEFA) in Schneider’s insect medium in the place of Leishmania amazonensis (MHOM/Br/75/JOSEFA) in Medium 199. […]
well-1 in a 24-well plate with round cover slips and incubated for 24 h at 37 °C and 5% CO2. […]

[3] = molecular target: T2, M5 (h) (antagonist radioligand) (Homo sapiens, UniProt P08912); assay: radioligand displacement assay, M5; assay type: binding
T2 construct: purchased Eurofins (contract assay); host or cells: cell membrane homogenates
T2 sequence (P08912 1-532): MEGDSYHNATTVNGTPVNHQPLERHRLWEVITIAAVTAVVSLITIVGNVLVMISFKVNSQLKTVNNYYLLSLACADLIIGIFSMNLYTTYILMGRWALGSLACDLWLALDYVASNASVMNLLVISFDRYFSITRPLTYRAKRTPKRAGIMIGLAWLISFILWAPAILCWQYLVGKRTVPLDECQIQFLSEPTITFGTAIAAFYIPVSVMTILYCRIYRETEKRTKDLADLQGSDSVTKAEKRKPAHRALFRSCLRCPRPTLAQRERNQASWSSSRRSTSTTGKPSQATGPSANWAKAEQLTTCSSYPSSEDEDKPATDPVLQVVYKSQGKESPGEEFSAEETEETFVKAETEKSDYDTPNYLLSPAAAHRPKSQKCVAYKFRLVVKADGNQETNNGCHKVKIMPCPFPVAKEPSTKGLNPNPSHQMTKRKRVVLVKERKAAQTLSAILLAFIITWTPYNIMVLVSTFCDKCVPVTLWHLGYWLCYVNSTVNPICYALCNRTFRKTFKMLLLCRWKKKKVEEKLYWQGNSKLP
Description: as §1, §2, §3

[4] = system: panel of neurotransmitter receptors; assay: radioligand displacement assay, whole panel; assay type: binding, human
Description: as §1, §2, §3

[5] = system: L. amazonensis GFP promastigotes; assay: mouse model of L. amazonensis infection (ear, IL dosing); assay type: in vivo, BALB/c mice; details: 1.2 mg kg^−1 IL twice a week for 4 weeks
Description: Consequently, we used IL dosing for this experiment. To enable direct comparison with CF, the same treatment regimen (dose of 1.2 mg kg^−1via IL injection twice a week for 4 weeks starting on DPI) was used for both compounds.
A Weight variation of mice during 28 days of treatment. B Progression of lesion thickness over 28 day treatment period. C Representative photographs of the infected ear for each group taken after completion of treatment, D parasite burden was evaluated by LDA on 36 days post infection. […]
In vivo assays were conducted as previously reported 1. Two month old BALB/c female mice, weighing 20 - 25 g and of approximately the same age were used for the study. For infection of mice, stationary phase GFP L. amazonensis promastigotes were collected, washed and suspended in sterile PBS. A volume of 10 μl of sterile PBS containing 2 x 10^6 parasites was injected into the right ear. […]
Infected ear thicknesses were measured once or twice a week with a caliper gauge, and the lesion sizes were expressed as the difference between the thickness of infected and non-infected ear. On day 41 animals were sacrificed and the fluorescence measured (485 - 528 nm) and parasite load quantified using a limiting dilution assay (LDA).
Data on lesion progression were analysed for statistical significance by using the Dunnett test as part of the one-way ANOVA (GraphPad Prism 8 software). […]

**Q.** For C[C@H]1CCCN1CCCO[C@H](c1ccccc1)c1ccc(Cl)cc1 [38l], which “effective binding, radioligand displacement, M1” value [1] is on record?
**A.** > 40%

**Q.** What about the EC50 [2] of the same compound?
**A.** 41 nM

**Q.** And the “affinity, radioligand displacement, M5” value [3]?
**A.** lower affinity

**Q.** What about the “binding profile across receptor panel” value [4] of the same compound?
**A.** greater selectivity

**Q.** What about the lesion growth trends ([5]; 35 days post-infection) of the same compound?
**A.** similar

**Q.** And the “parasitaemia (parasite burden by LDA) versus untreated group” value ([5]; LDA 36 days post infection)?
**A.** statistically significant reduction

— PMC11862611 (RSC Medicinal Chemistry, 2025)
